Data from ChEMBL document CHEMBL1144968, “Novel, highly potent, selective 5-HT2A/D2 receptor antagonists as potential atypical antipsychotics” (Bioorg Med Chem Lett, 2003).

Assays:
[1] = target: 5-hydroxytryptamine receptor 2A (Homo sapiens, UniProt P28223); experiment: Binding affinity towards 5-hydroxytryptamine 2A receptor using [125I]DOI as radioligand.
[2] = target: T1, 5-hydroxytryptamine receptor 2C (Homo sapiens, UniProt P28335); experiment: Binding affinity towards 5-hydroxytryptamine 2C receptor using [125I]DOI as radioligand.
T1 sequence (P28335 whole entry): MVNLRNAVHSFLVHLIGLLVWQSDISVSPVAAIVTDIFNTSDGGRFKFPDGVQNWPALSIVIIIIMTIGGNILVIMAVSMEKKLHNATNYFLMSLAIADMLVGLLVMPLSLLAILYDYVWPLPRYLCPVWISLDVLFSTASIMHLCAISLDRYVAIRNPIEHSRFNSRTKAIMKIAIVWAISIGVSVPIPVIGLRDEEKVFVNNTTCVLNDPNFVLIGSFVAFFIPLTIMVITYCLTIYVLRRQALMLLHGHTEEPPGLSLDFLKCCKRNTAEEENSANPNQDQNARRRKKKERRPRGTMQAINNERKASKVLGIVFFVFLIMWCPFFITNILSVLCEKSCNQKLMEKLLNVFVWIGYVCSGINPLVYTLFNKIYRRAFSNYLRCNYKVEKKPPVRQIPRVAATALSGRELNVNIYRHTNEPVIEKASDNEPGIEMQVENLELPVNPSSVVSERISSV

D(2) dopamine receptor = D(2) dopamine receptor (Homo sapiens, UniProt P14416); experiment: Binding affinity towards DA D2 receptor using [3H]N-methyl-spiperone as radioligand.
Sequence of D(2) dopamine receptor (P14416 whole entry): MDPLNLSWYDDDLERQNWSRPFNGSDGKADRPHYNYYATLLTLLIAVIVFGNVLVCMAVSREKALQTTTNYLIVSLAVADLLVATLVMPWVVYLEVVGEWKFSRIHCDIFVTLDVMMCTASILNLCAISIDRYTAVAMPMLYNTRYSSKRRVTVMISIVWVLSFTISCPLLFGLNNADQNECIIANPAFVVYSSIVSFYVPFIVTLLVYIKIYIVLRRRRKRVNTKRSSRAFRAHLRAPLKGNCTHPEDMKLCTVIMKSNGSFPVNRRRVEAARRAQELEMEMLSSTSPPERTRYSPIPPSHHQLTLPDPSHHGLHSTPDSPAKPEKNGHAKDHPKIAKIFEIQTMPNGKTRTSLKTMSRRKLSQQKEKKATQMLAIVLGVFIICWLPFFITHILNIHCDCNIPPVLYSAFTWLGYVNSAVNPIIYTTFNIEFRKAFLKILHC

Rattus norvegicus = experiment: Inhibition of quipazine induced head twitching after peroral administration in rat.; format: functional; settings: po
[3] = target: Dopamine D2 receptor and serotonin 2a receptor (Homo sapiens) (UniProt P14416+P28223); experiment: Selectivity ratio for inhibition of dopamine D2 receptor to that of 5-HT2A receptor.; format: protein assay
Sequence of Dopamine D2 receptor and serotonin 2a receptor (Homo sapiens) (P14416 whole entry, looked up): as the sequence (P14416 whole entry) above
Sequence of Dopamine D2 receptor and serotonin 2a receptor (Homo sapiens) (P28223 whole entry, looked up): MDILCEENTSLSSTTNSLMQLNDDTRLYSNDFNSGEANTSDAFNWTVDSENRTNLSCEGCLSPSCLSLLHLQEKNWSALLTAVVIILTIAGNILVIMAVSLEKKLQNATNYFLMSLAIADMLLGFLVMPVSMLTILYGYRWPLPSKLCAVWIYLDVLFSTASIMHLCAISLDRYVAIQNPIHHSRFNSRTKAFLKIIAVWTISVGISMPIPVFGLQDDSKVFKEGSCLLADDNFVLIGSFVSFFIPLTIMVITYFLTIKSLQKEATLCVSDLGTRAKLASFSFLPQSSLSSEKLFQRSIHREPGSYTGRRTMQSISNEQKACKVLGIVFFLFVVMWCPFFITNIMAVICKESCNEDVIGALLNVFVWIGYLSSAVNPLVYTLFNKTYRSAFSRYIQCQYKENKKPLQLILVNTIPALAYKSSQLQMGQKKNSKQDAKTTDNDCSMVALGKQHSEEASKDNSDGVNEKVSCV

Sequence of 5-hydroxytryptamine receptor 2A (P28223 whole entry): as the sequence (P28223 whole entry, looked up) above

Ki [1] [nM] | Ki [2] [nM] | Ki (D(2) dopamine receptor) [nM] | Ratio [3] | SMILES | ED50 (Rattus norvegicus) [mg/kg]
1.2 | 71 | 29 | 24 | Nc1cc(F)ccc1C(=O)CCCN1CC[C@@H]2[C@H](C1)c1cccc3c1N2CCC3 | 1.4
0.4 | 82 | 2.7 | – | Nc1cc(F)ccc1C(=O)CCCN1CC[C@H]2[C@@H](C1)c1cccc3c1N2CCCS3 (stereo in doubt; (+)-6) [listing 1 of 2 here] | 0.52
3.1 | 148 | 20 | 6.5 | Nc1ccccc1C(=O)CCCN1CC[C@@H]2[C@H](C1)c1cccc3c1N2CCCC3 | –
– | – | – | 5.9 | Nc1cc(F)ccc1C(=O)CCCN1CC[C@H]2[C@@H](C1)c1cccc3c1N2CCCS3 (stereo in doubt; 6) [listing 1 of 2 here] | –
0.9 | 136 | 19 | 21 | Nc1cc(F)ccc1C(=O)CCCN1CC[C@@H]2[C@H](C1)c1cccc3c1N2CCCC3 | –
0.7 | 106 | 4.1 | – | Nc1cc(F)ccc1C(=O)CCCN1CC[C@H]2[C@@H](C1)c1cccc3c1N2CCCS3 (stereo in doubt; 6) [listing 2 of 2 here] | –
0.2 | 128 | 2.3 | 12 | Nc1cc(F)ccc1C(=O)CCCN1CC[C@H]2[C@@H](C1)c1cccc3c1N2CCO3 | –
0.7 | 106 | 11 | 16 | Nc1ccccc1C(=O)CCCN1CC[C@H]2[C@@H](C1)c1cccc3c1N2CCCC3 | –
0.3 | 90 | 4 | 13 | Nc1cc(F)ccc1C(=O)CCCN1CC[C@H]2[C@@H](C1)c1cccc3c1N2CCS3 | –
– | – | – | 6.8 | Nc1cc(F)ccc1C(=O)CCCN1CC[C@H]2[C@@H](C1)c1cccc3c1N2CCCS3 (stereo in doubt; (+)-6) [listing 2 of 2 here] | –
0.6 | 136 | 3.5 | 5.8 | Nc1cc(F)ccc1C(=O)CCCN1CC[C@H]2[C@@H](C1)c1cccc3c1N2CCCC3 | –
0.5 | 53 | 5.2 | 10.2 | Nc1cc(F)ccc1C(=O)CCCN1CC[C@H]2[C@@H](C1)c1cccc3c1N2CCC3 | –
4.2 | 452 | 4.7 | 1.1 | Nc1cc(F)ccc1C(=O)CCCN1CC[C@@H]2[C@H](C1)c1cccc3c1N2CCCS3 | –

Second part, the molecule before the results:

SMILES | Ki [1] [nM] | Ki [2] [nM] | Ki (D(2) dopamine receptor) [nM] | Ratio [3] | ED50 (Rattus norvegicus) [mg/kg]
Nc1ccccc1C(=O)CCCN1CC[C@H]2[C@@H](C1)c1cccc3c1N2CCCS3 (stereo in doubt; (+)-4) [listing 1 of 2 here] | 0.6 | 172 | 15 | – | –
Nc1cc(F)ccc1C(=O)CCCN1CC[C@@H]2[C@H](C1)c1cccc3c1N2CCO3 | 2.8 | 664 | 16 | 5.7 | 0.03
Nc1ccccc1C(=O)CCCN1CC[C@H]2[C@@H](C1)c1cccc3c1N2CCCS3 (stereo in doubt; 4) [listing 1 of 2 here] | – | – | – | 2.9 | –
Nc1cc(Br)ccc1C(=O)CCCN1CC[C@H]2[C@@H](C1)c1cccc3c1N2CCCS3 | 79 | 112 | 4.7 | 0.06 | –
Nc1cc(F)ccc1C(=O)CCCN1CC[C@@H]2[C@H](C1)c1cccc3c1N2CCS3 | 1.5 | 184 | 14 | 9.3 | –
Nc1ccccc1C(=O)CCCN1CC[C@@H]2[C@H](C1)c1cccc3c1N2CCS3 | 6.6 | 237 | 19 | 2.9 | –
CNc1ccccc1C(=O)CCCN1CC[C@H]2[C@@H](C1)c1cccc3c1N2CCCS3 | 62 | 253 | 31 | 0.5 | –
Nc1ccccc1C(=O)CCCN1CC[C@H]2[C@@H](C1)c1cccc3c1N2CCS3 | 0.8 | 417 | 41 | 51 | –
Nc1ccccc1C(=O)CCCN1CC[C@H]2[C@@H](C1)c1cccc3c1N2CCCS3 (stereo in doubt; (+)-4) [listing 2 of 2 here] | – | – | – | 25 | –
CS(=O)(=O)Nc1cc(F)ccc1C(=O)CCCN1CC[C@H]2[C@@H](C1)c1cccc3c1N2CCCS3 | 7.5 | 639 | 18 | 2.4 | –
Nc1ccccc1C(=O)CCCN1CC[C@@H]2[C@H](C1)c1cccc3c1N2CCC3 | 3.7 | 94 | 63 | 17 | –
Nc1ccccc1C(=O)CCCN1CC[C@H]2[C@@H](C1)c1cccc3c1N2CCC3 | 0.8 | 106 | 68 | 85 | –
O=CNc1cc(F)ccc1C(=O)CCCN1CC[C@H]2[C@@H](C1)c1cccc3c1N2CCCS3 | 90 | 259 | 7.7 | 0.09 | –
Nc1ccc(F)cc1C(=O)CCCN1CC[C@H]2[C@@H](C1)c1cccc3c1N2CCCS3 | 15 | 258 | 15 | 1 | –
CC(=O)Nc1cc(F)ccc1C(=O)CCCN1CC[C@H]2[C@@H](C1)c1cccc3c1N2CCCS3 | 0.8 | 222 | 3.4 | 4.3 | –
Nc1ccccc1C(=O)CCCN1CC[C@@H]2[C@H](C1)c1cccc3c1N2CCO3 | 11.9 | 501 | 60 | 5 | –
CCOC(=O)Nc1cc(F)ccc1C(=O)CCCN1CC[C@H]2[C@@H](C1)c1cccc3c1N2CCCS3 | 51 | 349 | 15.1 | 0.29 | –
CCNC(=O)Nc1cc(F)ccc1C(=O)CCCN1CC[C@H]2[C@@H](C1)c1cccc3c1N2CCCS3 | 11 | 48 | 26 | 2.3 | –
Nc1c(F)cccc1C(=O)CCCN1CC[C@H]2[C@@H](C1)c1cccc3c1N2CCCS3 | 7.6 | 672 | 14 | 1.8 | –
Nc1cc(Cl)ccc1C(=O)CCCN1CC[C@H]2[C@@H](C1)c1cccc3c1N2CCCS3 | 70 | 754 | 2.3 | 0.03 | –
O=C(CCCN1CC[C@H]2[C@@H](C1)c1cccc3c1N2CCCS3)c1ccccc1 | 2.7 | 417 | 17 | 6.3 | –
Nc1ccccc1C(=O)CCCN1CC[C@H]2[C@@H](C1)c1cccc3c1N2CCCS3 (stereo in doubt; 4) [listing 2 of 2 here] | 2.1 | 200 | 6 | – | –
Nc1ccccc1C(=O)CCCN1CC[C@H]2[C@@H](C1)c1cccc3c1N2CCO3 | 1.6 | 335 | 23 | 14 | –
Nc1cc(O)ccc1C(=O)CCCN1CC[C@H]2[C@@H](C1)c1cccc3c1N2CCCS3 | 90 | 259 | 50 | 0.56 | –
O=C(CCCN1CC[C@H]2[C@@H](C1)c1cccc3c1N2CCCS3)c1ccc(F)cc1 | 2.5 | 609 | 8.8 | 3.5 | 0.86
Nc1ccccc1C(=O)CCCN1CC[C@@H]2[C@H](C1)c1cccc3c1N2CCCS3 | 10.4 | 320 | 5.9 | 0.57 | –
